Reference: patent publication US11311512B2, “Lymph directing prodrugs” (priority 2014, dated 2022)

Key:
[1] = for Transport of total TST derivatives in lymph (% of dose): anaesthetised, mesenteric lymph-duct cannulated female SD rats, intraduodenal infusion 0-2 h, cumulative over 8 h; for Fold increase (compared with control group dosed with TU): lymphatic transport of total TST derivatives, female SD rats, intraduodenal infusion
Method: Lipid formulations containing the compound of interest were then administered to the animals, the lymph collected and drug concentrations in the lymph subsequently quantified.
Lipid-based formulations of the compounds of the invention or control compounds were prepared as previously described (Trevaskis, N. L. et al., Pharmaceutical Research, 2005, 22(11), 1863-1870). Briefly, approximately 2 mg of the compound (1 mg in the case of Compound 35 and Compound 1), 40 mg oleic acid and 25 mg Tween 80 were mixed in a glass vial until equilibrated (gentle heat (below 50° C.) may be applied for a short period).
[…] This was to eliminate the potential for the relatively high and variable levels of endogenous testosterone in male rats interfering with the quantification of exogenously dosed testosterone. Rats (240-320 g) were maintained on a standard diet and fasted overnight with free access to water prior to experiments. Anaesthetised rats were placed on a heated pad at 37° C. and cannulas were inserted into the duodenum (for formulation administration and rehydration), mesenteric lymph duct (for lymph collection) and carotid artery (for blood collection) as previously described (Edwards et al. Advanced Drug Delivery Reviews 2001, 50(1), 45-60). Post-surgery, rats were re-hydrated for 0.5 h via intraduodenal infusion of normal saline at 2.8 mL/h. The lipid formulations were infused into the duodenum at 2.8 mL/h for 2 h, after which the infusion was changed to 2.8 mL/h normal saline for the remainder of the experiment. Lymph was continuously collected for 6 to 8 h into pre-weighed Eppendorf tubes containing 10 μL of 1,000 IU/mL heparin. The collection tubes were changed hourly and lymph flow was measured gravimetrically. Aliquots of hourly lymph samples were stored at −80° C. prior to assay.
Drug concentration in lymph is expressed as total drug and includes free drug and drug associated with different glycerides. This is assayed by hydrolysis of lymph (to liberate drug from any re-esterified glycerides) prior to assessment of free drug.
FIG. 1 illustrates the cumulative lymphatic transport of total testosterone related derivatives (% of administered dose) versus time in anaesthetised mesenteric lymph duct cannulated female SD rats following intraduodenal infusion of formulations from 0 to 2 h. Each Formulation contained 2 mg of the exemplified compound or the control, testosterone undecanoate (TU), dispersed in 40 mg oleic acid, 25 mg Tween 80 and 5.6 ml PBS.

[2] = Pharmacokinetic study in rats, testosterone plasma concentrations after oral gavage; conditions: for systemic exposure of parent testosterone (dose-normalised plasma AUC0-24h), fold greater than after Compound 41 or Compound 10: oral administration; for systemic exposure of parent testosterone (dose-normalised plasma AUC0-24h), fold greater than after Compound 41 or Compound 10 / AUC0-24 h fold increase compared with TU group: SD female rats; for AUC0-24 h fold increase compared with TU group / Tmax / AUC0-24 h / Cmax: testosterone in plasma, oral gavage; for AUC0-24 h fold increase compared with TU group: dose-normalized; for Tmax / AUC0-24 h / Cmax: conscious carotid artery cannulated SD female rats; for AUC0-24 h / Cmax: normalized to 2 mg/kg equivalent testosterone dose
Method: In order to assess the oral bioavailability of the compounds of the invention, pharmacokinetic studies were conducted in rats and dogs. […] The rats were then allowed to regain consciousness and fasted overnight prior to the commencement of experiments with free access to water. […] The oral formulation of Compound 2 contained 3 mg of the compound, 20 mg oleic acid and 12.5 mg Tween 80 dispersed in 1 mL PBS. Blood samples were collected from the carotid artery cannula from 5 min prior to administration up to 24 h post-dosing and centrifuged at 5000 rpm for 5 min to separate plasma. […] Plasma samples were stored at −80° C. prior to assay by HPLC-MS-MS. In this case samples were assayed for free drug (i.e. non-glyceride associated drug) and were not hydrolysed prior to assay (as was the case with the lymph samples).
FIG. 12 illustrates dose-normalized testosterone plasma concentrations following oral gavage of formulations to conscious, carotid artery cannulated female SD rats. Formulations contained 1 mg of TU, or 2 mg of compounds of the invention containing testosterone dispersed in 40 mg oleic acid, 25 mg Tween 80 and 2 ml PBS. Doses are normalized to a 2 mg/kg equivalent dose of testosterone. Data are shown as mean±SEM for all groups (n=4 or 3 for each group). The embedded figure is the plot of the dose-normalized plasma AUC0-24h (nmol×h/L) of testosterone in the form of a bar graph.

[3] = system: porcine pancreatic lipase; assay: In vitro hydrolysis by porcine pancreatic lipase; format: in vitro ADME; conditions: 37° C., simulated intestinal micellar solution pH 6.5, up to 180 min
Method: To provide for higher throughput of experiments, unless otherwise stated, in vitro hydrolysis of TST related compounds was performed via incubation with porcine pancreatic lipase. This provides a more reproducible source of pancreatic enzymes, facilitates enhanced experimental throughput and is also a greater challenge than collected rat enzymes (since enzyme activity in rat intestinal fluid is low). Briefly, pancreatic lipase solution was prepared prior to the hydrolysis experiment by dispersion of 1 g porcine pancreatin in 5 ml of lipolysis buffer and 16.9 μl of 5M NaOH. The suspension was mixed well and centrifuged at 3500 rpm for 15 minutes at 5° C. to provide a supernatant. An amount of 1000 ml of lipolysis buffer was prepared with 0.474 g of tris-maleate (2 mM), 0.206 g of CaCl2.H2O (1.4 mM) and 8.775 g of NaCl (150 mM) adjusted with NaOH to pH 6.5. To assess the potential for prodrug hydrolysis in the intestine, 20 μl of prodrug solution (1 mg/ml dissolved in acetonitrile), 900 μl of simulated intestinal micellar solution [prepared with 0.783 g of NaTDC (3 mM) and 0.291 g of phosphatidyl choline (0.75 mM) in 500 ml lipolysis buffer] and 100 μl of enzyme solution were incubated at 37° C. 20 μl samples of the incubation solution were taken at 0, 5, 10, 15, 30, 60, 90, 120 and 180 minutes post incubation and added to 180 μl of ACN to stop lipolysis. The mixture was vortexed and centrifuged at 5000 rpm for 5 minutes to precipitate proteins prior to analysis. The supernatant was analysed by HPLC-MS for residual compound concentrations, and the potential products of compound hydrolysis were analysed.
On incubation with digestive enzymes the monoglycerides forms of the prodrugs are formed very rapidly. The stability in simulated intestinal conditions is therefore better assessed by the stability of the monoglycerides form that is generated by the initial digestion process. The monoglycerides form must remain intact to be absorbed and re-esterified in the enterocyte prior to entry into the lymphatics. […] This is consistent with the increase in lymphatic transport of Compound 18 when compared to Compound 10, and the high extent of lymphatic transport of Compound 16 in FIG. 4.

[4] = Pharmacokinetic study in greyhound dogs, testosterone plasma concentrations after oral administration; format: in vivo; conditions: for Cmax / Tmax / AUC0-24 h: oral capsules; for Cmax / AUC0-24 h: normalized to 2 mg/kg equivalent testosterone dose
Method: For the dog studies, female greyhound dogs were held in a large animal research facility for at least 5 days prior to the commencement of studies. The dogs were allowed to acclimatise for at least 4 days prior to commencing the study. The dogs were fasted for 12 h up to 30 min prior to drug administration. For the fed state studies (n=4 for TU or Compound 13), dogs received 680 g of standard commercial dog food containing 5% fat min prior to drug administration. In the fasted study (n=1 for Compound 13), the dog remained fasted until after 4 h post-dose. Water was available ad libitum throughout the study for all dogs. On the study day, a 20 gauge intravenous catheter was inserted into a cephalic vein to allow blood sampling. The dogs were free to move around (not restrained) after cannulation. For the fed state studies, Andriol Testocaps (the commercial TU product) or Compound 13 was given to the dogs. Andriol Testocaps were supplied by Merck Sharp & Dohme (Australia) Pty Limited and were formulated as soft gelatin capsule containing a 12.0% (w/w) solution of TU in lauroglycol FCC/castor oil [40:60% (w/w)] with the individual capsule composition being 40 mg of TU, lauroglycol FCC, castor oil, gelatin, glycerol, and sunset yellow (E110). Compound 13 was prepared in a long-chain lipid based self-emulsifying drug delivery system (SEDDS) that consisted of 30.5% w/w soybean oil, 30.5% w/w Maisine 35-1, 31.6% w/w Cremophor EL and 7.4% w/w ethanol. Formulations were filled into hard gelatin capsules. Two capsules of Andriol Testocaps containing 80 mg TU or two capsules of Compound 13 containing a total dose of 90 mg Compound 13 dissolved in 2 g of the SEDDS formulation were administrated to the fed greyhound dog by placing the capsules as far posterior to the pharynx as possible, closing the mouth and rubbing the throat to stimulate swallowing. Subsequently 50 mL of water was administered orally via a syringe. Two capsules of Compound 13 formulation were also administrated to the fasted dogs for fasted state studies. After oral administration, blood samples (approx. 3 mL each) were taken via the cephalic vein cannula from 5 min prior to administration up to 10 hours post-dosing. The patency of the catheters was maintained by flushing with a small volume of heparinised saline (1-2 IU/mL) after each blood sample was withdrawn. Blood samples at 24 h were taken by venepuncture. Plasma was separated by centrifugation and aliquots of each plasma sample were transferred into eppendorf tubes and store at −80° C. prior to analysis by LC-MS-MS.

[5] = greyhound dog, fasted state (n = 1)

With CCCCCCCCCCCCCCCC(=O)OCC(COC(=O)CCCCCCCCCCCCCCC)OC(=O)CCCCC(=O)O[C@H]1CC[C@H]2[C@@H]3CCC4=CC(=O)CC[C@]4(C)[C@H]3CC[C@]12C [Compound 11] the “Transport of total TST derivatives in lymph (% of dose)” value [1] was 17.0 ± 1.6 % of dose, the “Fold increase (compared with control group dosed with TU)” value [1] was 9.0 fold and the “systemic exposure of parent testosterone (dose-normalised plasma AUC0-24h), fold greater than after Compound 41 or Compound 10” value [2] was 10 fold. The “AUC0-24 h fold increase compared with TU group” value (“AUC0-24 h fold increase” below) [2] was 12.4 fold, the Tmax [2] was 1.3 ± 0.1 h and the AUC0-24 h [2] was 0.0842 ± 0.0093 µM·h. For the same compound, the Cmax [2] was 69.9 ± 8.2 nM and the “stability of the monoglyceride form during in vitro incubation with porcine pancreatic lipase” value (“stability” for short) [3] was “not highly stable”.

For CCCCCCCCCCCCCCCC(=O)OCC(COC(=O)CCCCCCCCCCCCCCC)OC(=O)CCCCCCCCC(=O)O[C@H]1CC[C@H]2[C@@H]3CCC4=CC(=O)CC[C@]4(C)[C@H]3CC[C@]12C [Compound 13], the “systemic exposure of parent testosterone (dose-normalised plasma AUC0-24h), fold greater than after Compound 41 or Compound 10” value [2] was 10 fold, the Tmax [2] was 0.9 ± 0.1 h and the AUC0-24 h [2] was 0.1871 ± 0.0358 µM·h. The Cmax [2] was 197 ± 53.4 nM, the “stability” value [3] was “not highly stable” and the “AUC0-24 h fold increase” value ([4]; greyhound dog, fasted state (n = 1), dose-normalized) was 7.3 fold. For the same compound, the Cmax ([4]; conscious greyhound dogs, fed state, TU as Andriol Testocaps, Compound 13 in SEDDS) was 455 ± 9.4 nM, the Tmax [4, 5] was 2.5 h and the AUC0-24 h [4, 5] was 1.0268 µM·h. For the same compound, the Cmax [4, 5] was 386 nM, the Tmax ([4]; greyhound dogs, fed state) was 1.8 ± 0.3 h and the AUC0-24 h ([4]; greyhound dogs, fed state) was 1.1166 ± 0.0324 µM·h.

For CCCCCCCCCCCCCCCC(=O)OCC(COC(=O)CCCCCCCCCCCCCCC)OC(=O)C(C)CCCCCCCC(=O)O[C@H]1CC[C@H]2[C@@H]3CCC4=CC(=O)CC[C@]4(C)[C@H]3CC[C@]12C (stereo partly drawn) [Compound 16], the “Transport of total TST derivatives in lymph (% of dose)” value [1] was 23.2 ± 2.3 % of dose, the “Fold increase (compared with control group dosed with TU)” value [1] was 12.3 fold and the “AUC0-24 h fold increase” value [2] was 15.8 fold. It also gave a Tmax [2] of 1.3 ± 0.1 h, an AUC0-24 h [2] of 0.1076 ± 0.014 µM·h and a Cmax [2] of 77 ± 14.2 nM. For the same compound, the “stability” value [3] was “significantly stabilised the monoglyceride intermediates”.

In the case of CCCCCCCCCCCCCCCC(=O)OCC(COC(=O)CCCCCCCCCCCCCCC)OC(=O)CCCCC(=O)OCO[C@H]1CC[C@H]2[C@@H]3CCC4=CC(=O)CC[C@]4(C)[C@H]3CC[C@]12C [Compound 21, 1,3-Bis(palmitoyloxy)propan-2-yl (((8R,9S,10R,13S,14S,17S)-10,13-dimethyl-3-oxo-2,3,6,7-8,9,10,11,12,13,14-15,16,17-tetradecahydro-1H-cyclopenta[a]phenanthren-17-yl)oxy)methyl adipate], the “AUC0-24 h fold increase” value [2] is reported as 44.0 fold, the Tmax [2] is reported as 0.7 ± 0.2 h and the AUC0-24 h [2] is reported as 0.2994 ± 0.1001 µM·h. The Cmax [2] was 232 ± 63.2 nM and the “stability” value [3] was “lower than that of Compound 11”.

With CCCCCCCCCCCCCCCC(=O)OCC(COC(=O)CCCCCCCCCCCCCCC)OC(=O)CC(C)CC(=O)Oc1cc(C)cc(C)c1C(C)(C)CC(=O)O[C@H]1CC[C@H]2[C@@H]3CCC4=CC(=O)CC[C@]4(C)[C@H]3CC[C@]12C (stereo partly drawn) [Compound 25] the “AUC0-24 h fold increase” value [2] was 58.5 fold, the Tmax [2] was 0.9 ± 0.1 h and the AUC0-24 h [2] was 0.3992 ± 0.0432 µM·h. The Cmax [2] was 419 ± 63.3 nM and the “stability” value [3] was “remarkably stable”.

With CCCCCCCCCCCCCCCC(=O)OCC(COC(=O)CCCCCCCCCCCCCCC)OC(=O)CC(C)CCCCCCC(=O)Oc1cc(C)cc(C)c1C(C)(C)CC(=O)O[C@H]1CC[C@H]2[C@@H]3CCC4=CC(=O)CC[C@]4(C)[C@H]3CC[C@]12C (stereo partly drawn) [Compound 27] the “AUC0-24 h fold increase” value [2] was 106.4 fold, the Tmax [2] was 1.5 ± 0.5 h and the AUC0-24 h [2] was 0.7238 ± 0.0905 µM·h. For the same compound, the Cmax [2] was 428 ± 97.8 nM and the “stability” value [3] was “remarkably stable”.
